Measured values as given in the supplement of paper PMC10949913.

How the values were obtained:
Experiment in all cases: area under concentration-response curve (viability) (AUC (a.u.)); higher = less active
Settings in all cases: 48 h
CU-ACC1 = test system: CU-ACC1
Outline: (§1)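 Three adrenocortical carcinoma cell lines were exposed for 48 h to library compounds at 11 concentrations in 1,536-well plates, then read by CellTiter-Glo luminescence. Signals were scaled per plate against vehicle and empty-well controls. From fitted concentration-response curves of inhibitory or non-responding classes alone, AC50 and area under the curve were obtained.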

CU-ACC2 = test system: CU-ACC2
Outline: as §1

NCI-H295R = test system: NCI-H295R
Outline: as §1

Row | Compound | area under concentration-response curve (CU-ACC1) | area under concentration-response curve (CU-ACC2) | area under concentration-response curve (NCI-H295R)
1 | CCN1C[C@]2(OC(=O)c3ccccc3NC(C)=O)CC[C@H](OC)[C@@]34[C@@H]2C[C@@H]([C@@H]13)[C@@]1(O)C[C@H](OC)[C@H]2C[C@@H]4[C@]1(O)[C@H]2OC | 416 | 499 | 429
2 | COC(=O)Nc1nc2cc(C(=O)c3cccs3)ccc2[nH]1 | 496 | 516 | 382
3 | CC1=C(/C=C/C(C)=C/C=C/C(C)=C/C=C/C=C(C)/C=C/C=C(C)/C=C/C2=C(C)CCCC2(C)C)C(C)(C)CCC1 | 544 | 617 | 574
4 | COc1ccc(-c2ccc3cc(C(=O)O)ccc3c2)cc1C12CC3CC(CC(C3)C1)C2 | 477 | 518 | 479
5 | CCN1C(=O)\C(=C/C2=CN=C(NC3=CC=C(C=C3)N4CCN(C)CC4)N=C12)C5=C(Cl)C=C(C=C5)C6=CN=CS6 | 562 | 604 | 568
6 | CC(=O)N1CCN(c2ccc(NC(=O)Cc3cnc(-c4ccnc(F)c4)c(C)c3)nc2)CC1 | 550 | 643 | 582
7 | NC(=O)c1cnc(-c2ccc(C3(N)CCC3)cc2)c(-c2ccccc2)c1 | 537 | 648 | 554
8 | CC1=C(C)C\2=C(S1)[N]3C(=NN=C3[C@H](CC(N)=O)\N=C2C4=CC=C(Cl)C=C4)C | 516 | 538 | 452
9 | CCN(CC)CCCC(C)Nc1ccnc2cc(Cl)ccc12 (stereo unspecified) | 464 | 638 | 583
10 | CCN1\C=C(C(O)=O)/C(=O)C2=C1C(=C(N3CCNC(C)C3)C(=C2)F)F (stereo unspecified) | 577 | 674 | 605
11 | Clc1cccc(C(c2ccc3nc[nH]c3c2)n2ccnc2)c1 (stereo unspecified) | 534 | 633 | 491
12 | Oc1ccc(C2CCN(c3ccnc4ccccc34)CC2)cc1O | 497 | 549 | 523
13 | OC1=CC2=C(C(=C1)O)C(=O)\C(=C(/O2)C3=CC(=C(O)C=C3)O)O | 499 | 607 | 545
14 | CCCN[S+](=O)([O-])Nc1ncnc(OCCOc2ncc(Br)cn2)c1-c1ccc(Br)cc1 | 381 | 567 | 518
15 | CC(C)CC(=O)N[C@H](C(=O)N[C@H](C(=O)N[C@@H](CC(C)C)[C@@H](O)CC(=O)N[C@@H](C)C(=O)N[C@@H](CC(C)C)[C@@H](O)CC(=O)O)C(C)C)C(C)C | 537 | 538 | 485
16 | [O-][S+]1(=O)/N=C(/NC2=CC(=CC=C2)NC(=O)CCl)C3=CC=CC=C13 | 446 | 557 | 528
17 | COc1cc(SC)ccc1C(=O)N1CCC(Cc2ccccc2)CC1 | 522 | 501 | 538
18 | C/C=C(/C)C(=O)O[C@H]1C(C)=CC23C(=O)C(C=C(CO)[C@@H](O)[C@]12O)[C@H]1[C@@H](C[C@H]3C)C1(C)C (stereo partly specified) | 399 | 505 | 484
19 | COc1cc(C)c(/C=C/C(C)=C/C=C/C(C)=C/C(=O)O)c(C)c1C | 484 | 544 | 524
20 | CC(C)OC(=O)C(C)(C)Oc1ccc(C(=O)c2ccc(Cl)cc2)cc1 | 593 | 608 | 517
21 | COc1ccccc1N1CCN(CC(O)COc2cccc3ccccc23)CC1 (stereo unspecified) | 458 | 515 | 501
22 | C[C@H](Cc1ccc(O)c(O)c1)[C@@H](C)Cc1ccc(O)c(O)c1 | 496 | 565 | 532
23 | Oc1ccc(/C=C/c2cc(O)cc(O)c2)cc1 | 482 | 574 | 547
24 | CN(C)CCc1c[nH]c2ccc(C[S+](=O)([O-])N3CCCC3)cc12 | 490 | 612 | 513

Row | Compound | area under concentration-response curve (CU-ACC1) | area under concentration-response curve (CU-ACC2) | area under concentration-response curve (NCI-H295R)
25 | CCCc1nc2c(C)cc(-c3nc4ccccc4n3C)cc2n1Cc1ccc(-c2ccccc2C(=O)O)cc1 | 561 | 639 | 599
26 | O=C(O)Cn1nnc(-c2cc(N3CCC(Oc4cc(F)ccc4Br)CC3)no2)n1 | 491 | 594 | 515
27 | CC(C)C[C@H](CN)CC(=O)O | 474 | 595 | 545
28 | O=C(Nc1nccs1)C(c1cc(F)ccc1O)N1Cc2ccccc2C1=O (stereo unspecified) | 504 | 557 | 524
29 | COC1(C[S+]([O-])c2ccccc2)CCN(CCc2c[nH]c3ccc(F)cc23)CC1 (stereo unspecified) | 477 | 469 | 493
30 | Cc1nc(-c2ccc(OCC(C)C)c(C#N)c2)sc1C(=O)O | 478 | 544 | 306
31 | OC[C@H]1O[C@@H]2[C@@H](OC\3=N\C(=N)\C=C/[N@@]23)[C@@H]1O | 488 | 504 | 472
32 | Oc1ccc(-c2nc(-c3ccncc3)c(-c3ccc(F)cc3)[nH]2)cc1 | 493 | 574 | 475
33 | CN[C@@H](C)C(=O)N[C@@H]1C(=O)N(Cc2c(C)ccc3ccccc23)c2ccc(C#N)cc2N(C(C)=O)[C@H]1C | 501 | 474 | 549
34 | O=c1cc(O)c(Cl)c[nH]1 | 558 | 641 | 586
35 | Cc1ccccc1C(C(=O)NC1CCCCC1)N(C(=O)Cn1ccnc1C)c1cccc(F)c1 (stereo unspecified) | 519 | 593 | 539
36 | CC[C@@]1(O)C(=O)OCC/2=C1/C=C/3N(CC4=C(CCNC(C)C)C5=CC=CC=C5N=C34)C2=O | 538 | 611 | 654
37 | Cc1cccc(-c2n[nH]cc2-c2ccc3ncccc3n2)n1 | 468 | 567 | 524
38 | CN(C)CC/C=C1/c2ccccc2COc2ccc(CC(=O)O)cc21 | 467 | 570 | 509
39 | Cc1cnc(NC(=O)c2cc(Oc3cnc(C(=O)N(C)C)nc3)c3cc(C)oc3c2)cn1 | 564 | 643 | 594
40 | CCN(C(=O)C/1=C(O)/C2=C(C=CC=C2Cl)N(C)C1=O)C3=CC=CC=C3 | 489 | 566 | 555
41 | CC[C@]12CC[C@H]3[C@@H](CCC/4=C/C(=O)CC[C@H]34)[C@@H]1CC[C@@]2(O)C#C | 519 | 614 | 575
42 | CCNC(=O)[C@H]1O[C@@H](n2cnc3c(N)nc(NCCc4ccc(CCC(=O)O)cc4)nc32)[C@H](O)[C@@H]1O | 404 | 587 | 537
43 | CN(C)CCOC(c1ccccc1)c1ccccc1 | 478 | 565 | 527
44 | N#C[C@@H]1C[C@@H]2C[C@@H]2N1C(=O)[C@@H](N)C12CC3CC(CC(O)(C3)C1)C2 | 500 | 598 | 517
45 | OC1=CC=C(C=C1)\C2=C\OC3=C(C(=CC(=C3)O)O)C2=O | 435 | 499 | 555
46 | Cc1cc(SCc2sc(-c3ccc(C(F)(F)F)cc3)nc2C)ccc1OCC(=O)O | 517 | 608 | 540
47 | Nc1ncnc2nc(-c3ccc(N4CCOCC4)nc3)cc(-c3cccc(Br)c3)c12 | 492 | 525 | 459
